Source: US11117892B2, “Pyrrolo-pyridine derivative compound, method for preparing same, and pharmaceutical composition containing same as active ingredient for prevention or treatment of protein kinase-related diseases” (DAEGU-GYEONGBUK MEDICAL INNOVATION FOUNDATION, priority 2017, dated 2021)

Columns and labels:
Experiment in all cases: scanMAX Kinase assay panel
Type in all cases: binding
Settings in all cases: read-out: % control
[1] = target: RSK4(Kin.Dom.1-N-terminal) (Homo sapiens (Human), UniProt Q9UK32)
Summary of the method: (§1)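 % control read-out: DMSO vehicle = 100%, positive control = 0%, test compound scaled between these two. Selectivity profiling was done on the scanMAX kinase panel.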

[2] = target: MELK (Homo sapiens (Human), UniProt Q14680)
MELK, sequence (Q14680 whole entry): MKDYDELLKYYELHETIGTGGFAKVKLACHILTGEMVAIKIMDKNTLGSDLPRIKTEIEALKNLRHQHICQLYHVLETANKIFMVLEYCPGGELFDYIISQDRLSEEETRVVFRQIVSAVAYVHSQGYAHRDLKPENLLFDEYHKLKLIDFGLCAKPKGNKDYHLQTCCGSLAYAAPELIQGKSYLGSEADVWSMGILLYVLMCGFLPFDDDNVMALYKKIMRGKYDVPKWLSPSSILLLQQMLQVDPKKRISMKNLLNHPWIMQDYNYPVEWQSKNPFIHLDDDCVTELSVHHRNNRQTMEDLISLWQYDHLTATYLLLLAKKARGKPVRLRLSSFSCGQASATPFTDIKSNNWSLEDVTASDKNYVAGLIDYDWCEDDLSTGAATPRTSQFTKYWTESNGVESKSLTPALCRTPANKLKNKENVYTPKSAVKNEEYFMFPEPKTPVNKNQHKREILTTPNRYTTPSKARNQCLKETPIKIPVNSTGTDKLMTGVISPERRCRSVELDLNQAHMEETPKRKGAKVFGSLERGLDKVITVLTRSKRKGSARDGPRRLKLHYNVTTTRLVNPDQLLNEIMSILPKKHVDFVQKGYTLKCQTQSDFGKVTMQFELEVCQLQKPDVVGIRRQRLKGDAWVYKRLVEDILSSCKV
Summary of the method: as §1

[3] = target: MEK5 (Homo sapiens (Human), UniProt Q13163)
MEK5, sequence (Q13163 whole entry): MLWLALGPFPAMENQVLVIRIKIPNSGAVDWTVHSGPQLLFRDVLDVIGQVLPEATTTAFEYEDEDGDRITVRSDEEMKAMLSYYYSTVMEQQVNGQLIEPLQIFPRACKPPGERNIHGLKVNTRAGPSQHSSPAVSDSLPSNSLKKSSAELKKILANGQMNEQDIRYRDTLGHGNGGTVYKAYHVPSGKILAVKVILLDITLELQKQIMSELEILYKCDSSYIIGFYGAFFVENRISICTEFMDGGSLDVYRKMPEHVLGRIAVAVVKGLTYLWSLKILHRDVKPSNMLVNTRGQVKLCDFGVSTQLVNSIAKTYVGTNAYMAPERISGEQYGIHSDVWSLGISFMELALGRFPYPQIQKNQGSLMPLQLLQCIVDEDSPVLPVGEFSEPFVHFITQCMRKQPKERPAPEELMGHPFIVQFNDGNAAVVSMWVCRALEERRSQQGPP
Summary of the method: as §1

[4] = target: PRKD3 (Homo sapiens (Human), UniProt O94806)
PRKD3, sequence (O94806 whole entry): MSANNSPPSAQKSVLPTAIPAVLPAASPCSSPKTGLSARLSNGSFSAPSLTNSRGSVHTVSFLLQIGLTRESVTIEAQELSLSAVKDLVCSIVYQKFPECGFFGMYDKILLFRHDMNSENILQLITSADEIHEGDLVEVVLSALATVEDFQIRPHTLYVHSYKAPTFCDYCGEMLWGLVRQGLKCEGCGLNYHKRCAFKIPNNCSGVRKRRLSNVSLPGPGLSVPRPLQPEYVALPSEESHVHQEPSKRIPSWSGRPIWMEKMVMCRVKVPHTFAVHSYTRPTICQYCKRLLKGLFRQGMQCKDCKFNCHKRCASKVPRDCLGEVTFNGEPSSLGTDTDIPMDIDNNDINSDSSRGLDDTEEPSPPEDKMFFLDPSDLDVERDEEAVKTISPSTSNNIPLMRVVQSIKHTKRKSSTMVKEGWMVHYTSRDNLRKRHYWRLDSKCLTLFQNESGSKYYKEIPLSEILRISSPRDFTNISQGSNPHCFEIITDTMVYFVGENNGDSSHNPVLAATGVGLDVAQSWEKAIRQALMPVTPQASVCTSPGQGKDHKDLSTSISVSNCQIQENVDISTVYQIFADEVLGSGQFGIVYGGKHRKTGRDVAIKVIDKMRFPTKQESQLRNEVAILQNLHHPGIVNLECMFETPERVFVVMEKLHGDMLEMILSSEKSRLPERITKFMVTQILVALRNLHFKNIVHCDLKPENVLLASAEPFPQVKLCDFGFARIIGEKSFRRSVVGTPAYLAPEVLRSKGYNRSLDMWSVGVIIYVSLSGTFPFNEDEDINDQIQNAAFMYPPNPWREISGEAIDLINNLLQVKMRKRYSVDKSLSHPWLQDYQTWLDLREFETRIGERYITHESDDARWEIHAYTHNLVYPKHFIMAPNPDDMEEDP
Summary of the method: as §1

[5] = target: STK16 (Homo sapiens (Human), UniProt O75716)
Summary of the method: as §1

[6] = target: JNK3 (Homo sapiens (Human), UniProt P53779)
JNK3, sequence (P53779 whole entry): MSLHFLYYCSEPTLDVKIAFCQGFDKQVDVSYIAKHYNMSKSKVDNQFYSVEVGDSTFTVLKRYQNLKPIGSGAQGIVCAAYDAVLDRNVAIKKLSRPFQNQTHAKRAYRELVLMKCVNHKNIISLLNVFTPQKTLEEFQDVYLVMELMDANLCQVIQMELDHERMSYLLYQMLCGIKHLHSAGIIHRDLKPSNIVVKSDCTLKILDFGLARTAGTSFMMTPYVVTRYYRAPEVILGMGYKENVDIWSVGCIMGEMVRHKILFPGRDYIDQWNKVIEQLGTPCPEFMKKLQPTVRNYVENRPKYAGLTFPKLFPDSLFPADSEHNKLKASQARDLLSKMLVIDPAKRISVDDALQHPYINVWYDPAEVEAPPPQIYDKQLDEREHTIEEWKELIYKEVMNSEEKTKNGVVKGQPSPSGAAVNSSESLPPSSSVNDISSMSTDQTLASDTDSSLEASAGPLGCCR
Summary of the method: as §1

[7] = target: MST4 (Homo sapiens (Human), UniProt Q9P289)
Summary of the method: as §1

[8] = target: JNK2 (Homo sapiens (Human), UniProt P45984)
Summary of the method: as §1

[9] = target: ABL1(T315I)-phosphorylated (Homo sapiens (Human), UniProt P00519, T315I)
Summary of the method: as §1

[10] = target: FES (Homo sapiens (Human), UniProt P07332)
Summary of the method: as §1

[11] = target: LTK (Homo sapiens (Human), UniProt P29376)
Summary of the method: as §1

[12] = target: ZAK (Homo sapiens (Human), UniProt Q9NYL2)
Summary of the method: as §1

[13] = target: IRAK3 (Homo sapiens (Human), UniProt Q9Y616)
Summary of the method: as §1

[14] = target: ERK8 (Homo sapiens (Human), UniProt Q8TD08)
ERK8, sequence (Q8TD08 whole entry): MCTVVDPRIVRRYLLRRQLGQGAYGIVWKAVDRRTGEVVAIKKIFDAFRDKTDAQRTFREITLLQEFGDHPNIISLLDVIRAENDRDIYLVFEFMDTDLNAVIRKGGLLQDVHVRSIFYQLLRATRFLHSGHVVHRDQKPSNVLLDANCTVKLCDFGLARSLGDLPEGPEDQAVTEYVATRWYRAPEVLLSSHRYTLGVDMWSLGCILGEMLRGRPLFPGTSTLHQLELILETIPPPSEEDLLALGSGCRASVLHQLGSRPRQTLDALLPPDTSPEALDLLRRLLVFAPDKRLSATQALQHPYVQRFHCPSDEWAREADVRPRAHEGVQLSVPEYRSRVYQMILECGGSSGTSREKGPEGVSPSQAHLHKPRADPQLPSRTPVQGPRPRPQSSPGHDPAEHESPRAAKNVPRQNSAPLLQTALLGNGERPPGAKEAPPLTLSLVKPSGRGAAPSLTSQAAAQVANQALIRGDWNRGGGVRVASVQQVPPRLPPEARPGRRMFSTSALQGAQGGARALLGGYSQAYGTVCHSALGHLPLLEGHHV
Summary of the method: as §1

[15] = target: WEE2 (Homo sapiens (Human), UniProt P0C1S8)
Summary of the method: as §1

[16] = target: MAP3K1 (Homo sapiens (Human), UniProt Q13233)
Summary of the method: as §1

[17] = target: SNARK (Homo sapiens (Human), UniProt Q9H093)
Summary of the method: as §1

[18] = target: HCK (Homo sapiens (Human), UniProt P08631)
Summary of the method: as §1

[19] = target: SRPK2 (Homo sapiens (Human), UniProt P78362)
SRPK2, sequence (P78362 whole entry): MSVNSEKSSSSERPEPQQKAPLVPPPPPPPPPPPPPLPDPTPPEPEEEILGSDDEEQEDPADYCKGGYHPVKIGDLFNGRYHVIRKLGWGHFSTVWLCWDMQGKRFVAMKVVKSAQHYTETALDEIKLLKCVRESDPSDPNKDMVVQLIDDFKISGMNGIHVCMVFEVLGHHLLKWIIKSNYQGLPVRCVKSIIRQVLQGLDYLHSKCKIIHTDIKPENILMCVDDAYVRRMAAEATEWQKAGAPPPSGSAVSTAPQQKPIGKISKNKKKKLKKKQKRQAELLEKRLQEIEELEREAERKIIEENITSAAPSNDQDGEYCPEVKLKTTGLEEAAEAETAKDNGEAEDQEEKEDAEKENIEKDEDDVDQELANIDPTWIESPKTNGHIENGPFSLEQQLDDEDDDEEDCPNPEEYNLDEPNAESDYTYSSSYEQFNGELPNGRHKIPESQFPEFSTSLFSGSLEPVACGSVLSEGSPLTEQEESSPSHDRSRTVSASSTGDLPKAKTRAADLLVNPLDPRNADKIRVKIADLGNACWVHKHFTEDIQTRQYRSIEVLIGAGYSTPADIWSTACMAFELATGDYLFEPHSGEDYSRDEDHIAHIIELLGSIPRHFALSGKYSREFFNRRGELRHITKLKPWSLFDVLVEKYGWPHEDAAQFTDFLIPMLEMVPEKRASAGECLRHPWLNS
Summary of the method: as §1

[20] = target: PLK4 (Homo sapiens (Human), UniProt O00444)
Summary of the method: as §1

[21] = target: DAPK2 (Homo sapiens (Human), UniProt Q9UIK4)
Summary of the method: as §1

[22] = target: LATS2 (Homo sapiens (Human), UniProt Q9NRM7)
Summary of the method: as §1

[23] = target: CDK11 (Homo sapiens (Human), UniProt Q9BWU1)
Summary of the method: as §1

[24] = target: MARK3 (Homo sapiens (Human), UniProt P27448)
Summary of the method: as §1

[25] = target: PIKFYVE (Homo sapiens (Human), UniProt Q9Y2I7)
Summary of the method: as §1

[26] = target: EGFR(L861Q) (Homo sapiens (Human), UniProt P00533, L861Q)
Summary of the method: as §1

[27] = target: RSK2(Kin.Dom.2-C-terminal) (Homo sapiens (Human), UniProt P51812)
RSK2(Kin.Dom.2-C-terminal), sequence (P51812 422-679): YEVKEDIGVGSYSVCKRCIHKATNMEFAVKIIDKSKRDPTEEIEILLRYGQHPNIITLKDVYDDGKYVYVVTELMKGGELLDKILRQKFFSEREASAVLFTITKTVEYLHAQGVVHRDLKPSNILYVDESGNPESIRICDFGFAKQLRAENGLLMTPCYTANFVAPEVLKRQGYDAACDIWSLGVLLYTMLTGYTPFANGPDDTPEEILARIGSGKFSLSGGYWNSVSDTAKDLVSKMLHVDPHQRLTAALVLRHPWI
Summary of the method: as §1

[28] = target: ABL1(Q252H)-phosphorylated (Homo sapiens (Human), UniProt P00519, Q252H)
Summary of the method: as §1

[29] = target: AKT3 (Homo sapiens (Human), UniProt Q9Y243)
AKT3, sequence (Q9Y243 whole entry): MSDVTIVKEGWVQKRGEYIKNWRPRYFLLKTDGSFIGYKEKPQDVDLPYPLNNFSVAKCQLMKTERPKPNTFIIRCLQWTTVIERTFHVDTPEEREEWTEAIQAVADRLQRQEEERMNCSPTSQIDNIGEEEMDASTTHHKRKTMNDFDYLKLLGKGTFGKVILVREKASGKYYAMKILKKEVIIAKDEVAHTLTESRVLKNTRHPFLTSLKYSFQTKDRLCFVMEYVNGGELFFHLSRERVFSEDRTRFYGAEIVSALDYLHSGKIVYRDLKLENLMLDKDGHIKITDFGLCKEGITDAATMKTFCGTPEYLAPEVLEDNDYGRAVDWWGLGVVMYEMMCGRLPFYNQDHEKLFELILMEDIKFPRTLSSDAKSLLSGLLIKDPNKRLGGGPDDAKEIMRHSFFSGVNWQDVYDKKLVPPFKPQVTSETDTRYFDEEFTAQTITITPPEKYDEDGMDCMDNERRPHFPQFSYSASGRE
Summary of the method: as §1

[30] = target: PRKD2 (Homo sapiens (Human), UniProt Q9BZL6)
Summary of the method: as §1

[31] = target: PFTK1 (Homo sapiens (Human), UniProt O94921)
PFTK1, sequence (O94921 whole entry): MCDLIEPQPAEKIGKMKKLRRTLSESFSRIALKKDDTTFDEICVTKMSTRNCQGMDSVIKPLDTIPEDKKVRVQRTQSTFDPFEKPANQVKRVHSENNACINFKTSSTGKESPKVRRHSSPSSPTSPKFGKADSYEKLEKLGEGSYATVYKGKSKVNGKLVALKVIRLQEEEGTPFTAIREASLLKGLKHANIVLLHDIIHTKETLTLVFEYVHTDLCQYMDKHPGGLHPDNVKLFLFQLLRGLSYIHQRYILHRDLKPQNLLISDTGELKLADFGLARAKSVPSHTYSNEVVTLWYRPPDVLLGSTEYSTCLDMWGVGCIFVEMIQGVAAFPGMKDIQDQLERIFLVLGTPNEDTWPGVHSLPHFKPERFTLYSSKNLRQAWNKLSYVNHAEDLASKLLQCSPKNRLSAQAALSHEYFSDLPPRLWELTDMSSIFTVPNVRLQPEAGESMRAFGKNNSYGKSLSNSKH
Summary of the method: as §1

[32] = target: LIMK2 (Homo sapiens (Human), UniProt P53671)
Summary of the method: as §1

[33] = target: EPHA4 (Homo sapiens (Human), UniProt P54764)
Summary of the method: as §1

[34] = target: GRK2 (Homo sapiens (Human), UniProt P25098)
Summary of the method: as §1

[35] = target: BMX (Homo sapiens (Human), UniProt P51813)
Summary of the method: as §1

SMILES	remaining binding at 1 µM [1]	remaining binding at 1 µM [2]	remaining binding at 1 µM [3]	remaining binding at 1 µM [4]	remaining binding at 1 µM [5]	remaining binding at 1 µM [6]	remaining binding at 1 µM [7]	remaining binding at 1 µM [8]	remaining binding at 1 µM [9]	remaining binding at 1 µM [10]	remaining binding at 1 µM [11]	remaining binding at 1 µM [12]	remaining binding at 1 µM [13]	remaining binding at 1 µM [14]	remaining binding at 1 µM [15]	remaining binding at 1 µM [16]	remaining binding at 1 µM [17]	remaining binding at 1 µM [18]	remaining binding at 1 µM [19]	remaining binding at 1 µM [20]	other results
CCNc1cc(Nc2ccc(C(=O)N3CCC(N4CCOCC4)CC3)cc2OC)nc2[nH]cc(C#N)c12 [Example 18, 4-(ethylamino)-6-((2-methoxy-4-(4-morpholinopiperidine-1-carbonyl)phenyl)amino)-1H-pyrrolo[2,3-b]pyridine-3-carbonitrile]	81%	62%	77%	9.6%	60%	0%	81%	0.1%	100%	89%	6.2%	96%	84%	99%	91%	90%	57%	85%	100%	40%	remaining binding at 1 µM [21]: 16%; remaining binding at 1 µM [22]: 26%; remaining binding at 1 µM [23]: 98%; remaining binding at 1 µM [24]: 100%; remaining binding at 1 µM [25]: 99%; remaining binding at 1 µM [26]: 85%; remaining binding at 1 µM [27]: 100%; remaining binding at 1 µM [28]: 100%; remaining binding at 1 µM [29]: 96%; remaining binding at 1 µM [30]: 2%; remaining binding at 1 µM [31]: 89%; remaining binding at 1 µM [32]: 90%; remaining binding at 1 µM [33]: 98%; remaining binding at 1 µM [34]: 71%; remaining binding at 1 µM [35]: 75%
CCNc1cc(Nc2ccc(C(=O)N3CCC(N4CCOCC4)CC3)cc2OC)nc2[nH]cc(C(F)(F)F)c12 [Example 57, (4-((4-(ethylamino)-3-(trifluoromethyl)-1H-pyrrolo[2,3-b]pyridin-6-yl)amino)-3-methoxyphenyl) (4-morpholinopiperidin-1-yl)methanone]	100%	69%	99%	78%	64%	52%	100%	52%	96%	87%	20%	87%	79%	93%	96%	79%	100%	88%	100%	47%	remaining binding at 1 µM [21]: 71%; remaining binding at 1 µM [22]: 100%; remaining binding at 1 µM [23]: 67%; remaining binding at 1 µM [24]: 92%; remaining binding at 1 µM [25]: 77%; remaining binding at 1 µM [26]: 94%; remaining binding at 1 µM [27]: 100%; remaining binding at 1 µM [28]: 100%; remaining binding at 1 µM [29]: 96%; remaining binding at 1 µM [30]: 83%; remaining binding at 1 µM [31]: 95%; remaining binding at 1 µM [32]: 99%; remaining binding at 1 µM [33]: 94%; remaining binding at 1 µM [34]: 95%; remaining binding at 1 µM [35]: 89%
